Peptide text beside a SMILES is read from it.
Target: T1, Angiotensin Converting Enzyme (ACE) (Oryctolagus cuniculus, UniProt P12822)
T1 sequence (P12822 34-1310): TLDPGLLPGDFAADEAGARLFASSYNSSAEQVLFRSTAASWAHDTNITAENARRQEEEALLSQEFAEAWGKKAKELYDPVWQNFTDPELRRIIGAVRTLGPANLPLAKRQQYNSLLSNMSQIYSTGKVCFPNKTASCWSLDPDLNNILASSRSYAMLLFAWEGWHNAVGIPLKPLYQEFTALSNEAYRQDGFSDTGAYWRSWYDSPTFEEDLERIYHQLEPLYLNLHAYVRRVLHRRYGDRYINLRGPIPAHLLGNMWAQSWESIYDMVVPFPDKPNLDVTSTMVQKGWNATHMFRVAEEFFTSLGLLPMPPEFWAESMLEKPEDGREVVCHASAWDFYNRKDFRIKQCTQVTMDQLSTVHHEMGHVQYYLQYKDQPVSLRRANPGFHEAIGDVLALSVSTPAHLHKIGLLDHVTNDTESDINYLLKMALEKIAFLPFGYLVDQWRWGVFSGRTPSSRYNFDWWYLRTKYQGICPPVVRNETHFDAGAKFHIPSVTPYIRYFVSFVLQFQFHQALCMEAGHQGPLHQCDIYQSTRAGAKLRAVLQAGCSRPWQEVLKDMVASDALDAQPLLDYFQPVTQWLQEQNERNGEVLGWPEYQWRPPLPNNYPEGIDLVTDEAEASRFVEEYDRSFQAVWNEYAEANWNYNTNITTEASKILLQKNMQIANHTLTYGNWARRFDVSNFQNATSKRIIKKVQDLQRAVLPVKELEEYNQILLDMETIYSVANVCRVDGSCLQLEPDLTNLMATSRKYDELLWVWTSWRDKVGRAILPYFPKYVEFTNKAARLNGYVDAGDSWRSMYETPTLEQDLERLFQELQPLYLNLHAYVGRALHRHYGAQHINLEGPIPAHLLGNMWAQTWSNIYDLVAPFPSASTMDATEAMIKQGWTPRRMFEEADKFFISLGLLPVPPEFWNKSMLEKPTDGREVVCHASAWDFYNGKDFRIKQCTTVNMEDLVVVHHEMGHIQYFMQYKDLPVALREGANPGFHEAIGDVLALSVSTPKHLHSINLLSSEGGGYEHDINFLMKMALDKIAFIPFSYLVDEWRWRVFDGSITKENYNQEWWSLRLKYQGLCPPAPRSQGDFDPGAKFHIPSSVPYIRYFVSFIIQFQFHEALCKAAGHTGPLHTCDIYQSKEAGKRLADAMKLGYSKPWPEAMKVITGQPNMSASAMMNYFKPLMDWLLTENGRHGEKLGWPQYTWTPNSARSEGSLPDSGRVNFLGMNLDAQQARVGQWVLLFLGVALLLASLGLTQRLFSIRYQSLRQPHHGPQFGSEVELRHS
Experiment: Measurement of ACE inhibitor activity (ACEI activity), Hip-His-Leu substrate, hippuric acid read at 228 nm
Type: biochemical
Details: chemically synthesized peptides, Table 4
Method: The measurement of ACE activity was performed according to the method disclosed by Cushman and Cheung (Cushman DW, Cheung HS. 1971. Biochem Pharmacol 20:1637-1648) and subsequently modified by Nakamura (Nakamura Y, Yamamoto N, Sakai K et al. 1995. J Dairy Sci 78:777-783). This method is based on the use of Hippuryl-L-Histidyl-L-Leucine (Hip-His-Leu) as substrate given that the action of the ACE on such substrate produced the release of hippuric acid, easily quantifiable by spectrophotometry by absorbance reading at 228 nm (A228) after extraction thereof with ethyl acetate. If the sample to be tested is added to the reaction tube along with the ACE and the substrate, the ACEI activity of the sample tested can be determined. As is mentioned in Example 1.1, during the selection of bacteria the sample used to measure ACEI activity was the supernatant of the fermented milk, subjected to centrifugation at 20,000 x g for 10 minutes and subsequently diluted to half with distilled water.
The substrate solution was formed by 0.1 M sodium borate, 300 mM sodium chloride, 5 mM Hip-His-Leu (Sigma, St. Louis, MO), pH 8.3 at 37°C. The ACE enzyme solution (Sigma, St. Louis, MO) was adjusted to an activity of 0.1 U/mL.
The different reaction mixtures were incubated for 30 minutes at 37°C and subsequently 150 µL of 1 M hydrochloric acid were added in order to stop the reaction and subsequently 1,000 µL, of ethyl acetate in order to extract the hippuric acid. The resulting mixtures were vigorously stirred for 20 seconds and centrifuged at 1,500 x g for 10 minutes in order to separate and collect from each tube the upper phase (ethyl acetate). 750 µL of each upper phase were pipetted into individual tubes, which were introduced in a bath of boiling water under a fume extraction hood until the solvent evaporated. Once the ethyl acetate was eliminated 800 µL of distilled water were added to each tube to dissolve the dry residue smoothly and without stirring. Finally the content of each tube was transferred to quartz cuvettes to read their absorbance at 228 nm. The inhibition percentage (% Inhibition) was calculated by applying the following formula: %Inhibition = ((A)−(B))/((C)−(D)) [formula] wherein (A), (B), (C) and (D) correspond to the absorbances at 228 nm of the solutions indicated in Table 2.
To perform this fermentation example, E. faecalis CECT 5727, E. faecalis CECT 5728, E. faecalis CECT 5826 or E faecalis CECT 5827 may be used indistinctly. The substrate is skimmed bovine milk powder reconstituted in water at 10% and autoclaved ([…] for 20 minutes). First a starter liquid was made, inoculating the substrate with a culture loop such that the initial population was 10^5-10^7 CFU/mL and incubating for 24 hours. 3% by weight of this culture was used as inoculum for the second fermentation which was maintained for 48 hours. Both fermentations were carried out at 30°C. The fermenting process was stopped by pasteurizing the fermented milk [75°C for 1 minute] and the final pasteurized product was used to measure ACEI activity according to the protocol described in Example 1.2, although in this case the fermented milks were subjected to the pasteurization treatment mentioned before being centrifuged at 20,000 x g for 10 minutes. […] Therefore, the final reaction volume is always 160 µL [100 µL of the substrate solution, 20 µL of the ACE solution and 40 µL of the sample to be tested (supernatant at the corresponding dilution with distilled water)].

Row | IC50 [µM] | Structure (SMILES)
1 | 5.4 | CC(C)C[C@H](NC(=O)[C@@H]1CCCN1C(=O)[C@H](CC(C)C)NC(=O)[C@H](Cc1cnc[nH]1)NC(=O)[C@@H](N)CC(C)C)C(=O)N1CCC[C@H]1C(=O)O [SEQ. ID. NO: 1, LHLPLP] (H-LHLPLP-OH)
2 | 630 | CC[C@H](C)[C@H](NC(=O)[C@@H](NC(=O)[C@@H]1CCCN1C(=O)[C@H](Cc1ccccc1)NC(=O)[C@@H]1CCCN1C(=O)CNC(=O)[C@H](CCCNC(=N)N)NC(=O)[C@@H](N)C(C)C)[C@@H](C)CC)C(=O)N[C@H](C(=O)O)C(C)C [SEQ. ID. NO: 4, VRGPFPIIV] (H-VRGPFPIIV-OH)
3 | > 700 | CC(C)[C@H](N)C(=O)N[C@H](C(=O)N[C@H](C(=O)N1CCC[C@H]1C(=O)N1CCC[C@H]1C(=O)N[C@@H](Cc1ccccc1)C(=O)O)C(C)C)C(C)C [SEQ. ID. NO: 5, VVVPPF] (H-VVVPPF-OH)
4 | > 700 | CC[C@H](C)[C@H](NC(=O)[C@@H](NC(=O)[C@@H]1CCCN1C(=O)[C@H](Cc1ccccc1)NC(=O)[C@@H]1CCCN1C(=O)CNC(=O)[C@H](CCCNC(=N)N)NC(=O)[C@@H](NC(=O)[C@@H]1CCCN1C(=O)CNC(=O)[C@H](CC(C)C)NC(=O)[C@@H](N)C(C)C)C(C)C)[C@@H](C)CC)C(=O)N[C@H](C(=O)O)C(C)C [SEQ. ID. NO: 7, VLGPVRGPFPIIV] (H-VLGPVRGPFPIIV-OH)

The next lines start with the compound.

Row | Structure (SMILES) | IC50 [µM]
5 | CC(C)C[C@H](NC(=O)[C@@H](N)C(C)C)C(=O)NCC(=O)N1CCC[C@H]1C(=O)N[C@H](C(=O)N[C@@H](CCCNC(=N)N)C(=O)NCC(=O)N1CCC[C@H]1C(=O)N[C@@H](Cc1ccccc1)C(=O)N1CCC[C@H]1C(=O)O)C(C)C [SEQ. ID. NO: 2, VLGPVRGPFP] (H-VLGPVRGPFP-OH) | 137
6 | CC(C)C[C@H](NC(=O)[C@@H]1CCCN1C(=O)[C@H](CC(C)C)NC(=O)[C@@H]1CCCN1C(=O)[C@H](CC(C)C)NC(=O)[C@H](Cc1c[nH]cn1)NC(=O)[C@@H](N)CC(C)C)C(=O)O [SEQ. ID. NO: 3, LHLPLPL] (H-LHLPLPL-OH) | 433
7 | CC(C)C[C@H](N)C(=O)N[C@H](C(=O)N[C@@H](CCC(N)=O)C(=O)N[C@H](C(=O)N1CCC[C@H]1C(=O)N[C@H](C(=O)N[C@H](C(=O)N[C@H](C(=O)N1CCC[C@H]1C(=O)N1CCC[C@H]1C(=O)N[C@@H](Cc1ccccc1)C(=O)O)C(C)C)C(C)C)C(C)C)[C@@H](C)O)[C@@H](C)O [SEQ. ID. NO: 6, LTQTPVVVPPF] (H-LTQTPVVVPPF-OH) | > 700
8 | CC[C@H](C)[C@H](NC(=O)[C@@H]1CCCN1C(=O)CNC(=O)[C@@H]1CCCN1C(=O)[C@H](Cc1ccccc1)NC(=O)[C@@H]1CCCN1C(=O)[C@H](Cc1ccc(O)cc1)NC(=O)[C@@H](NC(=O)[C@@H](N)CC(C)C)C(C)C)C(=O)N1CCC[C@H]1C(=O)N[C@@H](CC(N)=O)C(=O)N[C@@H](CO)C(=O)N[C@@H](CC(C)C)C(=O)N1CCC[C@H]1C(=O)N[C@@H](CCC(N)=O)C(=O)N[C@@H](CC(N)=O)C(=O)N[C@H](C(=O)N1CCC[C@H]1C(=O)N1CCC[C@H]1C(=O)O)[C@@H](C)CC [SEQ. ID. NO: 8, LVYPFPGPIPNSLPQNIPP] (H-LVYPFPGPIPNSLPQNIPP-OH) | 5.3

Reference: EP1640447A1, “BIOACTIVE PEPTIDE-PRODUCING STRAINS OF i ENTEROCOCCUS FAECALIS /i , BIOACTIVE PEPTIDES AND APPLICATIONS THEREOF” (Grupo Leche Pascual S.A., priority 2003, dated 2004)
